Reference: patent US8987473B2, “Ring-fused compound” (Sato Pharmaceutical Co., Ltd., priority 2011, dated 2015)

molecular target: human URAT1 (Homo sapiens (Human), UniProt Q96S37); experiment: Test for uric acid transport inhibition using human URAT1 expression cell; assay type: cell-based; conditions: human URAT1 stable expression CHO cell; 14C-labeled uric acid 38 μM final concentration; incorporation at room temperature for 5 minutes; 100% window defined with benzbromarone 100 μM; read-out: URAT1 Inhibitory Activity (IC50)
Protocol: In this Example, it was evaluated whether the Example compound has the URAT1 inhibitory activity.
Human URAT1 full-length cDNA was introduced to an expression vector pcDNA5/FRT/V5-His TOPO (registered trademark) (Invitrogen Corporation). The obtained expression plasmid was introduced to Chinese hamster ovary cell (hereinafter referred to as the CHO cell) by the liposome method using Lipofectamine LTX (Invitrogen), and cultured in a selection medium including hygromycin, whereby to prepare human URAT1 stable expression cell.
The human URAT1 expression CHO cell was cultured using D-MEM/F-12 (1:1) mixed medium including 10% bovine fetal serum and hygromycin at 37° C. in the presence of 5% CO2. The cells were seeded onto a 96 well plate (Corning Incorporated) in 0.8×10^5 cells/well, and after 24 hours, the test for uric acid transport inhibition below was performed.
The medium was removed by aspiration, and then the cells were washed once with an assay buffer including 125 mM of sodium gluconate, 4.8 mM of potassium gluconate, 1.2 mM of potassium dihydrogen phosphate, 1.2 mM of magnesium sulfate, 1.3 mM of calcium gluconate and 5.6 mM of glucose. 50 μL assay buffer including the test compound in various concentrations was added, and further 50 μL assay buffer including a radioactive ligand (uric acid labeled with ^14C; 38 μM final concentration) was added, and incorporation reaction was performed at room temperature for 5 minutes. Immediately after completion of the reaction, the reaction mixture was washed twice with 100 μL ice-cold assay buffer, and 100 μL of 0.1 N sodium hydroxide was added. The reaction mixture was stirred to lyse the cells, and 4 mL Hionic-Fluor (Packard BioScience CO) was added, and then the radioactivity was measured with a liquid scintillation counter (Beckman Coulter, Inc. and Packard BioScience CO).
The radioactivity when each concentration of the test compound was added (uric acid incorporation activity, %) was calculated in which the difference of the radioactivity when the test compound was not added (DMSO added), and the radioactivity when a positive control compound, benzbromarone (known URAT1 inhibitor) was added in 100 μM, was taken as 100%, and the concentration of the test compound when the uric acid incorporation activity was inhibited to 50% (IC50) was obtained.

Sequence of human URAT1 (Q96S37 whole entry): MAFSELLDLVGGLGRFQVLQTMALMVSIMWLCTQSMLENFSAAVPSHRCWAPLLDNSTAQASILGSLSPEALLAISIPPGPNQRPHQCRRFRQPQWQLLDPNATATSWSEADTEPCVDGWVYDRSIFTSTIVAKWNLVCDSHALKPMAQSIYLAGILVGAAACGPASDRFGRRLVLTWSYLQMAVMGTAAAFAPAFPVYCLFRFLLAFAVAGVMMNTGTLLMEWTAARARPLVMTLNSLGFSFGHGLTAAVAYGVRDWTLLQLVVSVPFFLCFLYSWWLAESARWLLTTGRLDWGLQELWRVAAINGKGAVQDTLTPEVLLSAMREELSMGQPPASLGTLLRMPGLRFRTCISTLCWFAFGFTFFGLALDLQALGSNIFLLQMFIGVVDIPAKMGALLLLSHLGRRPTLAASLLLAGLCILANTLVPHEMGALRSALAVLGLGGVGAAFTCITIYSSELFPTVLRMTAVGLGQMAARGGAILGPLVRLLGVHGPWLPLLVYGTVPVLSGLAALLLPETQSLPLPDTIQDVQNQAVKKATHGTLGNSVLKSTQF

Row | Structure (SMILES) | IC50 [nM]
1 | Cc1cccc(C)c1Cn1cc(C)c2ccc(C(=O)O)cc21 [Example 61, 1-(2,6-dimethylbenzyl)-3-methyl-1H-indole-6-carboxylic acid] | 46
2 | Cc1cccc(C)c1Cn1cc(C)c2ccc(CC(=O)O)cc21 [Example 64, 2-[1-(2,6-dimethylbenzyl)-3-methyl-1H-indole-6-yl]acetic acid] | 22
3 | Cc1cccc(C)c1Cn1nc(C)c2ccc(CC(=O)O)cc21 [Example 66, 2-[1-(2,6-dimethylbenzyl)-3-methyl-1H-indazole-6-yl]acetic acid] | 67
4 | Cc1cccc(C)c1Cn1cc(Cl)c2ccc(CC(=O)O)cc21 [Example 68, 2-[3-chloro-1-(2,6-dimethylbenzyl)-1H-indole-6-yl]acetic acid] | 30
5 | Cc1cccc(C)c1CN1CCc2ccc(CC(=O)O)cc21 [Example 75, 2-[1-(2,6-dimethylbenzyl)-2,3-dihydro-1H-indole-6-yl]acetic acid] | 77
6 | Cc1cccc(C)c1CN1CC(C)c2ccc(CC(=O)O)cc21 (centres unmarked) [Example 78, (3-RS)-2-[1-(2,6-dimethylbenzyl)-2,3-dihydro-3-methyl-1H-indole-6-yl]acetic acid] | 24
7 | Cc1cccc(C)c1CN1CC(C)(C)c2ccc(CC(=O)O)cc21 [Example 80, 2-[1-(2,6-dimethylbenzyl)-2,3-dihydro-3,3-dimethyl-1H-indole-6-yl]acetic acid] | 18
8 | Cc1cn(Cc2c(Cl)cccc2Cl)c2cc(CC(=O)O)ccc12 [Example 82, 2-[1-(2,6-dichlorobenzyl)-3-methyl-1H-indole-6-yl]acetic acid] | 15
9 | Cc1cn(Cc2cccc(Cl)c2Cl)c2cc(CC(=O)O)ccc12 [Example 84, 2-[1-(2,3-dichlorobenzyl)-3-methyl-1H-indole-6-yl]acetic acid] | 53
10 | Cc1ccc(C)c(Cn2cc(C)c3ccc(CC(=O)O)cc32)c1 [Example 85, 2-[1-(2,5-dimethylbenzyl)-3-methyl-1H-indole-6-yl]acetic acid] | 63
11 | Cc1cn(Cc2c(F)cccc2Cl)c2cc(CC(=O)O)ccc12 [Example 86, 2-[1-(2-chloro-6-fluorobenzyl)-3-methyl-1H-indole-6-yl]acetic acid] | 28
12 | Cc1cn(Cc2ccccc2Cl)c2cc(CC(=O)O)ccc12 [Example 87, 2-[1-(2-chlorobenzyl)-3-methyl-1H-indole-6-yl]acetic acid] | 88
13 | Cc1cn(Cc2cc3c(cc2Cl)OCO3)c2cc(CC(=O)O)ccc12 [Example 88, 2-{1-[(6-chlorobenzo[d][1,3]dioxol-5-yl)methyl]-3-methyl-1H-indole-6-yl}acetic acid] | 98
14 | Cc1cn(Cc2c(Cl)cccc2Cl)c2cc(CCC(=O)O)ccc12 [Example 89, 3-[1-(2,6-dichlorobenzyl)-3-methyl-1H-indole-6-yl]propionic acid] | 23
15 | CCc1cn(Cc2c(C)cccc2C)c2cc(C(=O)O)ccc12 [Example 91, 1-(2,6-dimethylbenzyl)-3-ethyl-1H-indole-6-carboxylic acid] | 43
16 | Cc1cccc(C)c1Cn1cc(C(C)C)c2ccc(C(=O)O)cc21 [Example 92, 1-(2,6-dimethylbenzyl)-3-isopropyl-1H-indole-6-carboxylic acid] | 71
17 | Cc1nn(Cc2c(Cl)cccc2Cl)c2cc(CC(=O)O)ccc12 [Example 97, 2-[1-(2,6-dichlorobenzyl)-3-methyl-1H-indazole-6-yl]acetic acid] | 18
18 | Cc1nn(Cc2cccc(Cl)c2Cl)c2cc(CC(=O)O)ccc12 [Example 99, 2-[1-(2,3-dichlorobenzyl)-3-methyl-1H-indazole-6-yl]acetic acid] | 41

Row | Structure (SMILES) | IC50 [nM]
19 | Cc1cccc(Cl)c1Cn1nc(C)c2ccc(CC(=O)O)cc21 [Example 102, 2-[1-(2-chloro-6-methylbenzyl)-3-methyl-1H-indazole-6-yl]acetic acid] | 52
20 | Cc1nn(Cc2c(F)cccc2Cl)c2cc(CC(=O)O)ccc12 [Example 104, 2-[1-(2-chloro-6-fluorobenzyl)-3-methyl-1H-indazole-6-yl]acetic acid] | 101
21 | Cc1nn(Cc2csc3ccc(Cl)cc23)c2cc(CC(=O)O)ccc12 [Example 106, 2-{1-[(5-chlorobenzo[b]thiophene-3-yl)methyl]-3-methyl-1H-indazole-6-yl}acetic acid] | 55
22 | Cc1nn(Cc2cccc3ccccc23)c2cc(CC(=O)O)ccc12 [Example 107, 2-[3-methyl-1-(naphthalene-1-ylmethyl)-1H-indazole-6-yl]acetic acid] | 77
23 | Cc1cc(C)c(Cn2nc(C)c3ccc(CC(=O)O)cc32)c(C)c1 [Example 108, 2-[3-methyl-1-(2,4,6-trimethylbenzyl)-1H-indazole-6-yl]acetic acid] | 94
24 | Cc1nn(Cc2c(Cl)cccc2C#N)c2cc(CC(=O)O)ccc12 [Example 109, 2-[1-(2-chloro-6-cyanobenzyl)-3-methyl-1H-indazole-6-yl]acetic acid] | 335
25 | Cc1nn(Cc2cccc3cccnc23)c2cc(CC(=O)O)ccc12 [Example 115, 2-[3-methyl-1-(quinoline-8-ylmethyl)-1H-indazole-6-yl]acetic acid] | 394
26 | Cc1cccc(C)c1Cn1nc(C)c2ccc(C(=O)O)cc21 [Example 117, 1-(2,6-dimethylbenzyl)-3-methyl-1H-indazole-6-carboxylic acid] | 91
27 | Cc1nn(Cc2c(Cl)cccc2Cl)c2cc(C(=O)O)ccc12 [Example 119, 1-(2,6-dichlorobenzyl)-3-methyl-1H-indazole-6-carboxylic acid] | 65
28 | Cc1nn(Cc2cccc(Cl)c2Cl)c2cc(C(=O)O)ccc12 [Example 120, 1-(2,3-dichlorobenzyl)-3-methyl-1H-indazole-6-carboxylic acid] | 91
29 | Cc1cccc(C)c1Cn1nc(C)c2ccc(CCC(=O)O)cc21 [Example 121, 3-[1-(2,6-dimethylbenzyl)-3-methyl-1H-indazole-6-yl]propionic acid] | 41
30 | Cc1nn(Cc2c(Cl)cccc2Cl)c2cc(CCC(=O)O)ccc12 [Example 122, 3-[1-(2,6-dichlorobenzyl)-3-methyl-1H-indazole-6-yl]propionic acid] | 10
31 | Cc1nn(Cc2csc3ccc(Cl)cc23)c2cc(CCC(=O)O)ccc12 [Example 124, 3-{1-[(5-chlorobenzo[b]thiophene-3-yl)methyl]-3-methyl-1H-indazole-6-yl}propionic acid] | 31
32 | Cc1nn(Cc2c(Cl)cccc2C#N)c2cc(CCC(=O)O)ccc12 [Example 125, 3-[1-(2-chloro-6-cyanobenzyl)-3-methyl-1H-indazole-6-yl]propionic acid] | 72
33 | Cc1nn(Cc2c(Cl)cccc2Cl)c2cc(C(O)C(=O)O)ccc12 (centres unmarked) [Example 128, [1-(2,6-dichlorobenzyl)-3-methyl-1H-indazole-6-yl]hydroxyacetic acid] | 576
34 | Cc1nn(Cc2c(Cl)cccc2Cl)c2cc(C(=O)CCC(=O)O)ccc12 [Example 130, 4-[1-(2,6-dichlorobenzyl)-3-methyl-1H-indazole-6-yl]-4-oxobutyric acid] | 68
35 | Cc1nn(Cc2c(Cl)cccc2Cl)c2cc(CCC(N)=O)ccc12 [Example 132, 3-[1-(2,6-dichlorobenzyl)-3-methyl-1H-indazole-6-yl]propionamide] | 186
